The text below walks through data of ChEMBL document CHEMBL1201862, “PubChem BioAssay data set” (2004).

Test systems include HCT-116; NCI-H226; M14; NCI-H460; SK-MEL-28; HOP-62; MDA-MB-435; PC-3; OVCAR-3; SNB-19; SF-539; HT-29; MCF7; OVCAR-8; NCI-H23; T47D; HCT-15; A498; LXFL 529; KM-20L2.
Holding throughout (assay): NCI tumour cell line growth inhibition, 48 h

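1) Cells in 96-well plates. 2) Compound, 48 h, 5 concentrations. 3) Linear interpolation between surrounding doses. 4) Unreached endpoint = highest concentration. Here, GI50 denotes the concentration required for 50% inhibition of growth.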 The source made the active and inactive calls. Cut-off read from the data, not from the text of the source: active = GI50 up to about 1.1 µM and inactive = higher.

As to `CN(C)CC(C)(C)CN1c2ccccc2Sc2ccccc21`, the GI50 is 13.8 µM (inactive) in the assay with HCT-116; 18 µM (inactive) in the assay on NCI-H226; 10.4 µM (inactive) in the assay with M14; 13.5 µM (inactive) in the assay with NCI-H460; 13.5 µM (inactive) with SK-MEL-28; 12.9 µM (inactive) in the assay on HOP-62. Besides, the GI50 was 13.4 µM (inactive) in the assay with MDA-MB-435; 12.9 µM (inactive) in the assay with PC-3; 11.9 µM (inactive) in the assay with OVCAR-3; 15.6 µM (inactive) with SNB-19; 19.7 µM (inactive) in the assay with SF-539; 10.8 µM (inactive) with HT-29. For the same compound, the GI50 was 16.4 µM (inactive) with MCF7; 15.3 µM (inactive) in the assay with OVCAR-8; 16.4 µM (inactive) in the assay on NCI-H23; 14.2 µM (inactive) in the assay with T47D; above 100 µM with HCT-15; 13.6 µM (inactive) in the assay on A498.

Turning to `C=C(C)C1CC=C(C)C2(C1)OCC(C)(C)C(C)O2` (configuration not stated), the GI50 in the assay with HCT-116 was 16.3 µM (inactive); in the assay with NCI-H226, 18.3 µM (inactive); with M14 it was 22.2 µM (inactive); with NCI-H460 it was 26.1 µM (inactive); in the assay on SK-MEL-28 it was 24 µM (inactive); in the assay with HOP-62, 16.6 µM (inactive). Further, the GI50 in the assay with MDA-MB-435 is 21.3 µM (inactive); with PC-3, 30.1 µM (inactive); with OVCAR-3, 16.1 µM (inactive); in the assay on SNB-19, 18.3 µM (inactive); in the assay on SF-539 it was 22.2 µM (inactive); with HT-29, 15.5 µM (inactive). For the same compound, the GI50 is 17.1 µM (inactive) in the assay on MCF7; 16.5 µM (inactive) in the assay with OVCAR-8; 20.7 µM (inactive) in the assay with NCI-H23; 18.4 µM (inactive) with T47D; 16.4 µM in the assay on HCT-15; 14.6 µM (inactive) in the assay with A498.

`COc1cc(C2C(Cl)C(=O)N2NC(=O)Cc2ccccc2)ccc1O` (configuration not stated): the GI50 in the assay on HCT-116 is 45.6 µM (inactive); in the assay on NCI-H226, 55.6 µM (inactive); in the assay on M14, > 100 µM (inactive); in the assay on NCI-H460 it was > 100 µM (inactive); in the assay with SK-MEL-28 it was > 100 µM (inactive); in the assay on HOP-62 it was > 100 µM (inactive). Moreover, the GI50 is 70.6 µM (inactive) in the assay on LXFL 529; 33.3 µM (inactive) in the assay with OVCAR-3; 47.3 µM (inactive) with SNB-19; 73.3 µM (inactive) in the assay with HT-29; > 100 µM (inactive) in the assay on KM-20L2; > 100 µM (inactive) in the assay with OVCAR-8. Moreover, the values for the GI50 in the assay on NCI-H23 and in the assay with HCT-15 were 45.1 µM (inactive) and above 100 µM, respectively.

Regarding `CCCC(=O)OCC1OC(n2cc(F)c(=O)[nH]c2=O)CC1O` (configuration not stated), the GI50 with HCT-116 was 0.614 µM (active); in the assay with NCI-H226, > 7.57 µM (inactive); in the assay with M14 it was 0.314 µM (active); in the assay with NCI-H460, 0.0221 µM (active); in the assay on SK-MEL-28 it was > 6.78 µM (inactive); with HOP-62, 0.0553 µM (active). Further, the GI50 in the assay on MDA-MB-435 is > 7.98 µM (inactive); with PC-3 it was 0.746 µM (active); in the assay with OVCAR-3 it was > 2.11 µM (inactive); in the assay on SNB-19 it was > 10 µM (inactive); with SF-539, 0.00432 µM (active); in the assay on HT-29, 0.721 µM (active). Also, the GI50 with MCF7 was 0.00463 µM (active); in the assay on OVCAR-8, 0.118 µM (active); in the assay on NCI-H23 it was 0.127 µM (active); in the assay on T47D, 6.44 µM (inactive); in the assay with HCT-15 it was above 7.53 µM; with A498, 0.489 µM (active).

For the compound `N#CC(c1ccccn1)c1nc2ccccc2[nH]1` (configuration not stated), the GI50 in the assay on HCT-116 was 98.4 µM (inactive); with NCI-H226, > 100 µM (inactive); with M14 it was > 100 µM (inactive); in the assay on NCI-H460 it was 85.5 µM (inactive); in the assay on SK-MEL-28 it was > 100 µM (inactive); in the assay with HOP-62, > 100 µM (inactive). Moreover, the GI50 in the assay on LXFL 529 is > 100 µM (inactive); in the assay on OVCAR-3, > 100 µM (inactive); with SNB-19 it was > 100 µM (inactive); with HT-29 it was > 100 µM (inactive); with OVCAR-8, 84.5 µM (inactive); with NCI-H23, > 100 µM (inactive). Also, in the assay with A498, the GI50 is > 100 µM (inactive).

`c1ccc2c(c1)nc1ccccn12`: the GI50 in the assay on HCT-116, with NCI-H226, in the assay with M14, in the assay with NCI-H460, with SK-MEL-28 and in the assay on HOP-62 was > 100 µM (inactive) each time. Further, the GI50 with MDA-MB-435, in the assay on PC-3, in the assay on OVCAR-3, in the assay with SNB-19, in the assay on SF-539 and in the assay with HT-29 was > 100 µM (inactive) throughout. Moreover, the GI50 was > 100 µM (inactive) with MCF7; > 100 µM (inactive) in the assay with OVCAR-8; > 100 µM (inactive) in the assay on NCI-H23; > 100 µM (inactive) in the assay with T47D; above 100 µM with HCT-15; 1.37 µM (inactive) in the assay with A498.

Take `COc1ccc(/C=N/N=C(\N)NO)c(Cl)c1O`: the GI50 in the assay on HCT-116 is 15.2 µM (inactive); in the assay on NCI-H226, 8.32 µM (inactive); in the assay with SK-MEL-28, 9.57 µM (inactive); with HOP-62 it was 6.21 µM (inactive); in the assay on LXFL 529, 2.89 µM (inactive); in the assay with OVCAR-3 it was 4.69 µM (inactive). The GI50 was 41 µM (inactive) in the assay on SNB-19; 12.2 µM (inactive) in the assay with SF-539; 12.2 µM (inactive) in the assay with OVCAR-8; 23.7 µM (inactive) with NCI-H23; 5.46 µM in the assay with HCT-15.

Consider `COc1ccc(/C(Cl)=C(\C=O)c2ccc(OC)c(OC)c2)cc1OC`, for which the GI50 in the assay with HCT-116 was > 91.4 µM (inactive); in the assay on NCI-H226, 91.6 µM (inactive); in the assay with M14, > 100 µM (inactive); in the assay with NCI-H460, 91.4 µM (inactive); with SK-MEL-28, > 94.6 µM (inactive); in the assay on HOP-62 it was > 84.7 µM (inactive). The GI50 in the assay on MDA-MB-435 is > 100 µM (inactive); in the assay on PC-3, > 100 µM (inactive); with OVCAR-3 it was > 46.8 µM (inactive); with SNB-19 it was > 100 µM (inactive); in the assay on SF-539, 94.6 µM (inactive); with HT-29, 41.6 µM (inactive). For the same compound, the GI50 was > 100 µM (inactive) with KM-20L2; 56.8 µM (inactive) in the assay with MCF7; > 94.6 µM (inactive) with OVCAR-8; 76.6 µM (inactive) in the assay with NCI-H23; 83 µM in the assay with HCT-15; > 94.4 µM (inactive) in the assay with A498.

Regarding `O=C1C(Cl)C(c2ccccc2O)N1n1cnc2ccccc2c1=O` (configuration not stated), the GI50 in the assay with HCT-116 was 64.3 µM (inactive); with NCI-H226, 62.2 µM (inactive); in the assay with M14 it was 80.2 µM (inactive); with NCI-H460 it was 35.2 µM (inactive); in the assay on SK-MEL-28, 70.1 µM (inactive); with HOP-62, 48.5 µM (inactive). Besides, the GI50 with LXFL 529 was 61.1 µM (inactive); with OVCAR-3, > 100 µM (inactive); in the assay on SNB-19 it was 63.8 µM (inactive); in the assay on HT-29, 87.3 µM (inactive); with KM-20L2, 78.3 µM (inactive); in the assay on OVCAR-8, 92.7 µM (inactive). Further, the GI50 is 49 µM (inactive) in the assay on NCI-H23 and 2.99 µM with HCT-15.

With `O=[N+]([O-])C(=C(Sc1ccccc1)Sc1ccccc1)C(Cl)=C(Cl)Cl`, the GI50 was 0.0597 µM (active) in the assay with HCT-116; 0.614 µM (active) with NCI-H226; 0.421 µM (active) with M14; 5.74 µM (inactive) with NCI-H460; 0.427 µM (active) in the assay with SK-MEL-28; 1.91 µM (inactive) with HOP-62. In addition, the GI50 in the assay on MDA-MB-435 was 0.334 µM (active); with PC-3, 2.26 µM (inactive); in the assay on OVCAR-3 it was 0.373 µM (active); in the assay on SNB-19, 10.6 µM (inactive); with SF-539 it was 2.13 µM (inactive); with HT-29, 0.123 µM (active). The GI50 was 0.21 µM (active) in the assay on MCF7; 0.23 µM (active) in the assay on OVCAR-8; 1.24 µM (inactive) in the assay with NCI-H23; 0.278 µM (active) with T47D; 0.319 µM in the assay with HCT-15; 3.44 µM (inactive) in the assay with A498.

Turning to `COC1CCC(OS(C)(=O)=O)C(CO)O1` (configuration not stated), the GI50 in the assay with HCT-116, in the assay with M14, in the assay on NCI-H460, with SK-MEL-28, in the assay with HOP-62 and in the assay on LXFL 529 was > 100 µM (inactive) each time. For the same compound, the GI50 in the assay on OVCAR-3, in the assay with SF-539, with HT-29, with KM-20L2, with OVCAR-8 and in the assay on NCI-H23 was > 100 µM (inactive) each time. The compound also registered a GI50 with HCT-15 above 100 µM.

Regarding `O=C(N/C(=C\c1ccc([N+](=O)[O-])cc1)c1nc2cc(Cl)ccc2[nH]1)c1ccccc1`, the GI50 in the assay with M14 was 17.3 µM (inactive); in the assay on SK-MEL-28, 22.9 µM (inactive); with LXFL 529, 17.1 µM (inactive); in the assay on OVCAR-3, 21.8 µM (inactive); with SNB-19, 24.9 µM (inactive); in the assay with SF-539 it was 19.1 µM (inactive). Also, the GI50 in the assay with HT-29 is 20.3 µM (inactive); in the assay with KM-20L2, 16.3 µM (inactive); in the assay on OVCAR-8, 30.1 µM (inactive); in the assay with NCI-H23 it was 18.1 µM (inactive); in the assay on HCT-15, 13.3 µM.

With `C=CCc1[nH]c2c(OCc3ccccc3)cc(N(CC=C)C(C)=O)cc2c1C`, the GI50 in the assay with HCT-116 was 12.3 µM (inactive); in the assay on NCI-H226, 17.6 µM (inactive); in the assay with M14 it was 10.1 µM (inactive); in the assay with NCI-H460, 14.8 µM (inactive); in the assay on SK-MEL-28, 16.9 µM (inactive); in the assay on HOP-62, 17.1 µM (inactive). Moreover, the GI50 in the assay on MDA-MB-435 was 17.1 µM (inactive); in the assay with PC-3, 6.76 µM (inactive); with OVCAR-3 it was 14.3 µM (inactive); with SNB-19, 12.8 µM (inactive); with SF-539, 16.3 µM (inactive); with HT-29, 8.04 µM (inactive). The GI50 in the assay on MCF7 was 12.4 µM (inactive); in the assay with OVCAR-8 it was 13.2 µM (inactive); with NCI-H23, 13.9 µM (inactive); with T47D, 3.79 µM (inactive); in the assay on HCT-15 it was 12.9 µM; with A498, 12.5 µM (inactive).
